“And” between values parts separate entries of the source, which are not always exact repeats. Equal values may be shown once. Read-outs that look alike come from different tables or passages of the source.
Tests used:
P-gp = tested on: P-gp; parameters: method as in unpublished data; conditions: MDR1-expressing MDCK cells; ref unpublished data; cited from earlier work
OATP1B1 = conditions: in vitro studies; no reference given; cited from earlier work
[1] = Study 3 safety: treatment-emergent adverse events; assay type: in vivo, human
Protocol: (§2) The study consisted of a 3-week screening period (from day –22 to –2), an 11 day open-label period (from day –1 to 10), followed by an end-of-study period consisting of 2 follow-up assessments occurring from 7 to 10 days and again from 14 to 18 days after the last dose of the study drug administration. Canagliflozin 300 mg (tablet) q.d. was administered on days 1 through 8 under fasted state.
(§3) Safety and tolerability were monitored throughout all three studies by evaluation of the incidence and the type of treatment-emergent adverse events (TEAEs), and change from baseline in: clinical laboratory tests (including hematology, serum chemistry, urinalysis, and urine uric acid analysis (study 2 only)), physical examination of all body systems except genitalia and breast (by a study physician), body weight, height, and BMI, vital signs (including systolic and diastolic blood pressure, heart rate, and body temperature), and 12-lead electrocardiographys (ECGs) (including cardiac rhythm, waveform morphology, and interval duration).

[2] = Study 2: effect of multiple-dose probenecid on steady-state pharmacokinetics of canagliflozin, M7 and M5; assay type: in vivo, human; conditions: for trough plasma concentration, mean (SD): canagliflozin 300 mg q.d.; for % Ae (dose): cumulative amount excreted into the urine: corrected for molecular weight when necessary; for tmax.ss: median (range)
Protocol: (§1) The study consisted of a 19-day screening period (from day –21 to –3), a 20 day open-label period (from day –2 to 18), followed by an end-of-study period (7 – 10 days). […] Participants received study drugs under fasted state on days 14 and 17. On all other study days, participants received a standardized meal 1 hour after the study drug administration. Diet was standardized in order to stabilize uric acid levels, and participants were advised not to consume highly purine-enriched foods.

[3] = human, in vivo
Protocol: as §2
Study 3: Venous blood (4 mL each) samples for the determination of canagliflozin plasma concentration were collected at pre-dose on days 2, 3, 4, 5, and 6, and at pre-dose and up to 24 hours post-dose (at 0.5, 1, 1.5, 2, 3, 4, 5, 6, 10, 12, 16, and 24 hours) on days 7 and 8.
(§4) Blood samples for canagliflozin, M7 and M5, rifampin and probenecid were centrifuged (10 minutes at 1,300 rpm), and the obtained plasma was stored at or below –20 °C. […] Urine samples were collected in polyethylene containers for the PK evaluation of canagliflozin, M7, and M5. Two aliquots (3 mL in study 1 and 2 mL in study 2) of urine sample were transferred into polyethylene tubes and were stored at or below –20 °C.
(§5) The EDTA plasma samples were analyzed to determine the concentrations of canagliflozin with a validated [29, 30] liquid chromatography coupled to tandem mass spectrometry/mass spectrometry (LC-MS/MS) method (Frontage, Shanghai, China). A ^13C6 analogue of canagliflozin was used as internal standard (IS). Briefly, the sample was processed using a liquid-liquid extraction with tert-butyl methyl ether. The LC phase used a 5 cm × 4.6 mm column packed with XBridge C18 (Waters, Milford, MA, USA) with a mobile phase of ammonium acetate 0.01M (30%) and methanol (70%), and a flow rate of 1.2 mL/min. Quantification was achieved by MS/MS detection with an API4000, equipped with TurboIonSpray (TIS) interface (AB Sciex, Framingham, MA, USA), in the positive ion multiple reaction monitoring (MRM) mode. Canagliflozin and IS were monitored at mass transitions m/z 462.1 → 267.0 and m/z 468.1 → 273.0, respectively. The quantitation range was 5.0 – 10,000 ng/mL.
Pharmacokinetic analyses of plasma and urine concentrations was done by non-compartmental method using validated WinNonlin® software Version 5.2.1 (Pharsight Corporation, Mountain View, CA, USA). […] The assessed pharmacokinetic parameters of canagliflozin, M7, and M5 in study 2, and of canagliflozin in study 3 were: Cmax during a dosing interval at steady state (Cmax.ss), observed plasma concentration before dosing or at the end of a dosing interval (Ctrough; only for canagliflozin), tmax during a dosing interval at steady state (tmax.ss), and AUC during a dosing interval at steady state (AUCτ.ss). Additionally, M/P ratio (corrected for the differences in molecular weights) for Cmax.ss, AUCτ.ss, Ae during a collection interval (Aet1-t2), %Ae dose, and CLR were calculated for study 2.
A mixed-effects model was fitted to the log-transformed data of AUC or Cmax as dependent variables, treatment (with or without coadministration of the other drug) as a fixed effect, and participant as a random effect. The estimated least-square means and intra-participant variability from the mixed-effect model was used to construct 90% confidence interval (CI) for the difference in means of AUC or Cmax on the log-scale between the two treatments. The limits of the CIs were retransformed using antilogarithms to obtain the 90% CI for the ratio of the geometric mean AUC or Cmax.

[4] = Study 2 safety: treatment-emergent adverse events; assay type: in vivo, human
Protocol: as §1

P-glycoprotein (P-gp) = tested on: P-glycoprotein (P-gp); parameters: method as in earlier work; conditions: in vitro experiments; cited from earlier work
[5] = in vivo
From the text: (§6) For each study, the participants were enrolled at different individual study centers in the US. Study 1 (rifampin study, NCT01395927) was a single-center, open-label, fixed-sequence study to evaluate the effects of steady-state rifampin on the single-dose PK of canagliflozin. The study consisted of a screening period of 20 days (from day –21 to ‒2), a 14-day open-label period (from day –1 to 13), followed by an end-of-study period (5 – 7 days) consisting of follow-up assessments. Participants received canagliflozin 300 mg (tablet) q.d. on day 1 and rifampin 600 mg q.d. (as two 300 mg capsules) on days 4 – 9. On day 10, canagliflozin (300 mg) plus rifampin (600 mg) was administered, followed by rifampin alone (600 mg) administration on days 11 – 12. The study drugs were administered under a fasted state.
(§7) Study 1: Venous blood (4 mL each) samples for the determination of canagliflozin, M7, and M5 plasma concentrations were collected pre-dose, and up to 72 hours post-dose (at 0.5, 1, 1.5, 2, 3, 4, 6, 8, 10, 12, 16, 24, 48, and 72 hours) on days 1 and 10. Urine samples for the determination of canagliflozin, M7, and M5 in urine were collected over the intervals of 0 – 4 hours, 4 – 12 hours, 12 – 24 hours, 24 – 48 hours, and 48 – 72 hours on days 1 and 10. Venous blood samples (2 mL each) for the determination of rifampin plasma concentrations were collected 2 hours after rifampin administration on days 9 and 10.
as §4, §5
(§8) Plasma (validated) and urine (qualified) concentrations of M7 and M5 were also determined using ^13C6-canagliflozin as IS at Frontage Laboratories (Shanghai) Co., Ltd. Samples underwent protein precipitation, with acetonitrile. The LC-MS/MS quantitation was done with the same equipment as for canagliflozin. The LC phase used a 5 cm × 4.6 mm column packed with XBridge C18 with a mobile phase of ammonium acetate 0.01M (pH 4) and methanol at ratio 40/60 (v/v) at a flow rate of 1.2 mL/min. After 3.5 minutes, the composition was changed to 98% methanol for 1 minute to flush the column. Using positive ion MRM on an API4000, equipped with TIS, both metabolites were measured at mass transition m/z 638.2 → 427. The quantitation range was 5.0 – 10,000 ng/mL for both metabolites in plasma, and 100 – 100,000 ng/mL in urine.
(§9) Pharmacokinetic analyses of plasma and urine concentrations was done by non-compartmental method using validated WinNonlin® software Version 5.2.1 (Pharsight Corporation, Mountain View, CA, USA).

[6] = in vivo; remark: listed apart in the source
From the text: as §6, §3
(§10) Results of the clinical laboratory parameters and vital signs were summarized using descriptive statistics.

OAT3 = conditions: no reference given; cited from earlier work
[7] = Safety and tolerability across the three studies; assay type: in vivo, human
From the text: as §3, §10

[8] = parameters: method as in PMID 23670707; conditions: cited from earlier work
[9] = parameters: method as in PMID 22226086, PMID 22492586; conditions: canagliflozin 300 mg b.i.d., cited from earlier work
[10] = tested on: multidrug resistance protein 2 (MRP2); parameters: method as in earlier work; conditions: in vitro experiments; cited from earlier work
OAT1 = conditions: in vitro studies; no reference given; cited from earlier work
[11] = parameters: method as in PMID 21189429, PMID 6643696; conditions: under fed conditions; cited from earlier work
[12] = Study 1: effect of steady-state rifampin on single-dose pharmacokinetics of canagliflozin, M7 and M5; conditions: day 10 (with canagliflozin, fasted) vs day 9 (alone, fed)
From the text: as §6, §7, §4, §5, §8, §9

[13] = Study 1 safety: treatment-emergent adverse events; conditions: drug administered alone; n = 14
From the text: as §6, §3, §10

[14] = canagliflozin + probenecid (test), geometric mean, n = 11
[15] = canagliflozin + probenecid vs canagliflozin alone
[16] = canagliflozin + probenecid, arithmetic mean (SD)
[17] = canagliflozin alone (reference), geometric mean, n = 11
[18] = canagliflozin alone, arithmetic mean (SD)
[19] = probenecid coadministration vs canagliflozin alone
[20] = canagliflozin and probenecid coadministration, 1/12

Canagliflozin
P-gp substrate status (P-gp): P-gp substrate | basal-to-apical/apical-to-basal efflux ratio (P-gp): 2.0 | substrate of OATP1B1 (OATP1B1): not a substrate | participants with diarrhea ([1]; canagliflozin alone, 2/18): 11.1% | participants with oropharyngeal pain ([1]; canagliflozin alone, 2/18): 11.1% | participants reporting TEAEs ([1]; canagliflozin alone, 6/18): 33.3% | participants with flushing ([1]; canagliflozin and cyclosporine A coadministration, 15/18): 83.3% | participants reporting TEAEs ([1]; canagliflozin and cyclosporine A coadministration, 17/18): 94.4% | AUC∞.ss ([2]; canagliflozin 300 mg q.d. + probenecid 500 mg b.i.d. (day 17), arithmetic mean (SD), n = 12): 26,225 (5261) ng×h/mL | AUC∞.ss ([2]; canagliflozin 300 mg q.d. alone (day 14), arithmetic mean (SD), n = 12): 21,861 (4290) ng×h/mL | trough plasma concentration, mean (SD) ([2]; day 13): 381 (110) ng/mL | trough plasma concentration, mean (SD) ([2]; day 14): 366 (117) ng/mL | trough plasma concentration, mean (SD) ([2]; day 15): 358 (110) ng/mL | AUC∞.ss [2, 14]: 26,011.71 ng×h/mL | Cmax.ss [2, 14]: 3,008.66 ng/mL | AUCτ.ss, estimated ratio (test/reference) of geometric means (90% CI) [2, 15]: 120.74 (116.37; 125.27) % | AUC∞.ss, estimated ratio (test/reference) of geometric means (90% CI) [2, 15]: 120.74 (116.37; 125.27) % | Cmax.ss, estimated ratio (test/reference) of geometric means (90% CI) [2, 15]: 113.37 (100.37; 128.06) % | CLR (renal clearance, Ae24/AUC24) [2, 16]: 0.0569 (0.00944) L/h | % Ae (dose): cumulative amount excreted into the urine [2, 16]: 0.495 (0.136) % dose | tmax.ss ([2]; canagliflozin + probenecid): 1.67 (1.42 – 5.92) h | AUC∞.ss [2, 17]: 21,543.95 ng×h/mL | Cmax.ss [2, 17]: 2,653.85 ng/mL | CLR (renal clearance, Ae24/AUC24) [2, 18]: 0.0868 (0.0297) L/h | % Ae (dose): cumulative amount excreted into the urine [2, 18]: 0.609 (0.217) % dose | tmax.ss ([2]; canagliflozin alone): 1.92 (1.42– 3.92) h | Cmax.ss ([2]; plasma, canagliflozin 300 mg q.d. + probenecid 500 mg b.i.d. (day 17), arithmetic mean (SD), n = 12): 3,105 (680) ng/mL | Cmax.ss ([2]; plasma, canagliflozin 300 mg q.d. alone (day 14), arithmetic mean (SD), n = 12): 2,699 (814) ng/mL | decrease in mean CLR [2, 19]: ~ 34% | increase in AUCτ.ss (systemic exposure) [2, 19]: 21% | increase in Cmax.ss [2, 19]: 13% and ~ 13% | AUCτ.ss [3]: 22,243.50 ng×h/mL | Cmax.ss [3]: 2,864.03 ng/mL | tmax.ss [3]: 2.00 (1.00 – 3.00) h | AUCτ.ss ([3]; 300 mg): 22,158 (4203) ng×h/mL | Cmax.ss ([3]; 300 mg): 2,887 (735) ng/mL | participants with headache ([4]; canagliflozin alone, 2/14): 14.3% | participants with ≥ 1 TEAE ([4]; canagliflozin alone, 4/14): 28.6% | participants with abdominal discomfort [4, 20]: 8.3% | participants with diarrhea [4, 20]: 8.3% | participants with headache [4, 20]: 8.3% | participants with muscle twitching [4, 20]: 8.3% | participants with musculoskeletal pain [4, 20]: 8.3% | participants with pruritis [4, 20]: 8.3% | participants with urethral pain [4, 20]: 8.3% | participants with ≥ 1 TEAE ([4]; canagliflozin and probenecid coadministration, 5/12): 41.7% | substrate of P-glycoprotein (P-gp) (P-glycoprotein (P-gp)): substrate | AUC∞ ([5]; human): 20,938.95 ng×h/mL | CLR (renal clearance, Ae0–72/AUC0–72h) ([5]; human): 0.0849 (0.0318) L/h | Cmax ([5]; human): 2,358.29 ng/mL | t1/2 ([5]; human): 12.9 (2.42) h | tmax ([5]; human): 2.00 (1.00 – 4.00) h | AUC∞ ([5]; human, 300 mg): 21,695 (6151) ng×h/mL | Cmax ([5]; human, 300 mg): 2,474 (805) ng/mL | Ae (% dose): cumulative amount excreted into the urine [5]: 0.578 (0.180) % dose | participants with TEAEs [6]: 21.4% | participants with abdominal discomfort [6]: 7.1% | participants with polyuria [6]: 7.1% | participants with thirst [6]: 7.1% | substrate of OAT3 (OAT3): not a substrate | changes in clinical laboratory values, vital signs, physical examinations, or ECGs ([7]; any of the three studies): No consistent, clinically relevant changes | deaths, serious TEAEs, or discontinuations due to TEAEs ([7]; any of the three studies): No deaths, serious TEAEs, or discontinuations due to TEAEs | tolerability ([7]; canagliflozin 300 mg coadministered with rifampin, probenecid, and cyclosporine A, healthy participants): generally well-tolerated | canagliflozin dose excreted in urine as unchanged canagliflozin [8]: less than 1% | tolerability ([9]; 2-week multiple-dose study and 12-week dose-ranging study in T2DM): well-tolerated | plasma AUCτ.ss higher than with the 300 mg q.d. dose [9]: 93% | plasma Cmax.ss higher than with the 300 mg q.d. dose [9]: 32% | substrate of MRP2 [10]: substrate | substrate of OAT1 (OAT1): not a substrate

CO[C@H]1/C=C/O[C@@]2(C)Oc3c(C)c(O)c4c(O)c(c(/C=N/N5CCN(C)CC5)c(O)c4c3C2=O)NC(=O)/C(C)=C\C=C\[C@H](C)[C@H](O)[C@@H](C)[C@@H](O)[C@@H](C)[C@H](OC(C)=O)[C@@H]1C [rifampin]
reduction of rifampin absorption [11]: 30% | increase in plasma rifampin concentration at 2 hours [12]: 24% | participants with TEAEs [13]: 50%
